Patent US5607960A, “Indole derivatives as 5-HT1-like agonists for use in migraine” (Pfizer Inc., priority 1993, dated 1997)

Experiments:
[1] = biological target: T1, "5-HT1 -like" receptor (Canis lupus familiaris, UniProt P79250); details: cited from earlier work
T1 construct: dog isolated saphenous vein strip; from tissue; host or cells: dog isolated saphenous vein strip

[2] = biological target: T1, "5-HT1 -like" receptor; assay: contraction of dog isolated saphenous vein strip (in vitro "5-HT1 -like" receptor agonist activity); format: cell-based; details: for EC50: concentration which causes 50% of the maximum contraction effected by the compound; for RELATIVE POTENCY EC50 (compound) / EC50 (5-HT): ratio to 5-HT
Text: EC50 represents the concentration of compound which causes 50% of the maximum contraction effected by it.

[3] = system: carotid vascular bed; details: anaesthetized dog; cited from earlier work
[4] = acute toxicity in conscious dog, i.v.; format: in vivo; details: doses of up to 1 mg/Kg i.v.
[5] = acute toxicity in conscious mouse, i.v.; format: in vivo; details: doses of up to 10 mg/Kg i.v.

T1 sequence (P79250 whole entry): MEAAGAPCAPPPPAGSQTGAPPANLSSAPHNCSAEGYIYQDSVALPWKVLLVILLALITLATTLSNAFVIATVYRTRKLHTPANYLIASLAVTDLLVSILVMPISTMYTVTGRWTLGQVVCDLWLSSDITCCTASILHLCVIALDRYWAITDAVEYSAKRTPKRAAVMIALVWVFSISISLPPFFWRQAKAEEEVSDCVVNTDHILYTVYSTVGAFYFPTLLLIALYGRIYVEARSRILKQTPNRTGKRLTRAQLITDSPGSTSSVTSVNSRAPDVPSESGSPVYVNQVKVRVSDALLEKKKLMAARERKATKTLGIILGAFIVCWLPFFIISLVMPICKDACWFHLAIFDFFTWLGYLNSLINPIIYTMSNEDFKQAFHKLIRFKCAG

| Compound | EC50 [2] [nM] | RELATIVE POTENCY EC50 (compound) / EC50 (5-HT) [2] | also measured |
| --- | --- | --- | --- |
| CSc1ccc2c(c1)C(N1CCN(C)CC1)Cc1ccccc1S2 (centres unmarked) [methiothepin] | – | – | blockade of the contraction effect ([1]; isolated dog saphenous vein strip, known 5-HT antagonist): blocked |
| CN1CCC[C@@H]1Cc1c[nH]c2ccc(C=CC(C)(C)O)cc12 [Example 1, 5-(3-Hydroxy-3-methyl-1-but-1-enyl)-3-(N-methyl-2(R)-pyrrolidinylmethyl)-1H-indole] | 400 | 7.7 | – |
| CNS(=O)(=O)Cc1ccc2[nH]cc(CCN(C)C)c2c1 [Sumatriptan, sumatriptan] | – | – | contraction of the isolated dog saphenous vein strip ([1]; P.P.A. Humphrey et al., Brit. J. Pharmacol., 1988, 94, 1123): contracting the isolated dog saphenous vein strip; carotid arterial blood flow [3]: decrease in carotid arterial blood flow; carotid vascular resistance [3]: selective increase in carotid vascular resistance |
| OC1(CCc2ccc3[nH]cc(C4CCNC4)c3c2)CCCC1 (centres unmarked) [Example 109, 5-[2-(1-Hydroxycyclopentyl)ethyl]-3-(3-pyrrolidinyl)-1H-indole] | 750 | 8.5 | – |
| CN(C)C(=O)CCN1CCC[C@@H]1Cc1c[nH]c2ccc(CCC3(O)CCOC3)cc12 (stereo partly drawn) [Example 101, 5-[2-(3-Hydroxy-3-tetrahydrofuranyl)ethyl]-3-{N-[2-(N,N-dimethylcarbamoyl)ethyl]-2(R)-pyrrolidinylmethyl}-1H-indole] | 700 | 10.0 | – |
| CC(O)CCc1ccc2[nH]cc(C3CCN(C)CC3)c2c1 (centres unmarked) [Example 43, 5-(3-Hydroxy-1-butyl)-3-(N-methyl-4-piperidyl)-1H-indole] | 560 | 8.0 | – |
| CC(O)(CCc1ccc2[nH]cc(C[C@H]3CCCN3)c2c1)C(F)(F)F (stereo partly drawn) [Example 95, 5-(3-Hydroxy-3-trifluoromethyl-1-butyl)-3-(2(R)-pyrrolidinylmethyl)-1H-indole] | 320 | 4.0 | – |
| CC(C)(O)CCc1ccc2[nH]cc(C[C@H]3CCCN3)c2c1 [Example 29, 5-(3-Hydroxy-3-methyl-1-butyl)-3-(2(R)-pyrrolidinylmethyl)-1H-indole] | 670 | 9.0 | signs of adverse acute toxicity [4]: no signs of adverse acute toxicity; signs of adverse acute toxicity [5]: no signs of adverse acute toxicity |
| CC(C)(O)CCc1ccc2[nH]cc(C[C@H]3CCCN3CC3CC3)c2c1 [Example 25, 3-(N-Cyclopropylmethyl-2(R)-pyrrolidinylmethyl)-5-(3-hydroxy-3-methyl-1-butyl)-1H-indole] | 480 | 6.4 | – |
| CC(=O)CCc1ccc2[nH]cc(C[C@H]3CCCN3)c2c1 [Example 37, 5-(3-Oxo-1-butyl)-3-(2(R)-pyrrolidinylmethyl)-1H-indole] | 130 | 1.3 | – |
| CC(C)(O)CCc1ccc2[nH]cc(CCN)c2c1 [Example 48, 3-(2-Aminoethyl)-5-(3-hydroxy-3-methyl-1-butyl)-1H-indole] | 300 | 3.2 | – |
| CC(C)(O)CCc1ccc2[nH]cc(C[C@H]3CCCN3CCc3ccncc3)c2c1 [Example 30, 5-(3-Hydroxy-3-methyl-1-butyl)-3-{N-[2-(4-pyridyl)ethyl]-2(R)-pyrrolidinylmethyl}-1H-indole] | 940 | 7.2 | – |
